Paper PMC12864978, “Covalent modification of a glutamic acid inspired by HaloTag technology” (Nature Communications, 2026)

How the values were obtained:
[1] = target: T1, PDEδ (Homo sapiens, UniProt O43924); test: Covalent modification of PDEδ by MALDI mass spectrometry; type: binding; set-up: His tag; made in house; host or cells: Escherichia coli Rosetta (BL21DE3), pET plasmids
Procedure: The solution was briefly centrifuged before a sample was taken at the designated time for analysis by MALDI. […] Mass spectra were obtained over the m/z range 15,000–25,000 using a Bruker UltrafleXtreme XIAL DI-TOF/TOF mass spectrometer. Percentages of covalent adduct formation were estimated by the relative intensity of the respective peaks in MALDI spectra.
1. Supplementary Figures and Tables
PDEδ (20 µM) was incubated with compounds (60 µM) in HEPES
Percentages of covalent adduct formation were estimated by the relative intensity of the respective peaks in MALDI spectra. Data are presented as mean ± s.e.m.
Apparent pseudo -first order kobs was estimated by percentages of covalent adduct formation at 2 hours by MALDI. Plot of kobs (h-1) against concentration (µM) was fitted by GraphPad […]
Prism Michaelis-Menten model and separate values for kinact and KI were obtained to calculate apparent […]
PDEδ (20 µM) was incubated with
(§1) Data are presented as mean ± s.e.m.
HEPES buffer, n = 3 for the rest). One-way ANOVA with matched time-points, with Geisser-

[2] = Compound stability in aqueous buffers; type: physicochemical
Procedure: (§2) Compound (1 mM) was incubated with the respective buffers (HEPES 20 mM, 150 mM NaCl, pH = 7.5; 0.2 M sodium acetate buffer, pH = 5.6; 0.2 M sodium citrate buffer, pH = 6.2; 0.2 M potassium phosphate buffer, pH = 7.4, 1 mM EDTA, with or without 10 mM GSH), with 1% DMSO adjusted for all conditions. […] Per cent (%) compound remaining in the solution was estimated by the ratio of areas under the curve, and data plotted were fitted to pseudo-1st kinetics in the calculation of rate constants (k) and half-lives (t1/2), where k is the negative slope of a linear regression of In (% compound remaining) over time. Half-lives (t1/2) in respective buffers and half-lives for GSH adduct formation (t1/2 GSH) were calculated with the following equations:1 t1/2=In2/k 2 kGSH=ktotalconsumptioninphosphatebufferinpresenceofGSH−k(phosphatebufferinabsenceofGSH) 3 t1/2GSH=In2/k(GSH) […]
(§3) a, Percentage (%) of compound remaining was monitored by HPLC-MS and data was fitted to pseudo-first kinetics in calculation of rate constants (k) and half-lives (t1/2) in respective buffers, where k is the negative slope of a linear regression of In (% compound remaining) over time and t 1/2 = In2/k. Initial […]
(§4) Initial GSH concentration =

[3] = target: PDEδ in Jurkat cell lysates (Homo sapiens, UniProt O43924); test: In-lysate CETSA (immunoblot readout); type: binding; set-up: host or cells: Jurkat
[4] = target: T1, PDEδ; test: In-cell covalent modification of PDEδ (immunoblot); conditions: 2 h
[5] = target: T1, PDEδ; test: Competitive fluorescence polarisation assay (FA probe displacement); type: binding; set-up: His tag; made in house; host or cells: Escherichia coli Rosetta (BL21DE3), pET plasmids
[6] = tested on: Rheb localisation in PA-TU-8902 cells; test: Immunofluorescence staining of Rheb; type: cell-based, human; conditions: 5 µM, overnight
Procedure: Immunostaining: compound-treated PA-TU-8902 cells were washed once with cold PBS, fixed with 3.7% paraformaldehyde in PBS by incubation at room temperature for 10 min and permeabilised with 0.3% Triton X-100 in PBS by incubation at room temperature for 15 min. […] After washing with PBS-T three times, PBS-incubated cells were imaged with Observer Z1 (Carl Zeiss, Germany) with a 63× oil objective.

[7] = GSH adduct formation (stability in the presence of GSH); type: physicochemical; conditions: phosphate buffer with 10 mM GSH; 10-fold excess of GSH at 10 mM, phosphate buffer pH 7.4, 37 °C; read-out: half-life for GSH adduct formation t1/2 GSH (converted)
Procedure: as §2, §3, §4

[8] = target: T2, PDEδ in the presence of Arl2•GppNHp (Homo sapiens, UniProt O43924); test: Competitive fluorescence polarisation assay in the presence of Arl2•GppNHp; type: binding
T2 construct: His tag; made in house; host or cells: Escherichia coli Rosetta (BL21DE3), pET plasmids
Text: as §1

[9] = Mouse liver microsomal stability; type: in vitro ADME
Text: plotted as mean ± standard deviation, representative of 3 technical replicates ( N = 3). Unpaired, two-
Data were plotted as mean ± standard deviation, representative of 3 technical replicates in the presence

[10] = tested on: mTORC1 substrate S6P in PA-TU-8902 cells; conditions: 10 µM
[11] = tested on: HAP1 PDEδ knockout cells; test: Relative growth after 72 h; type: cell-based; conditions: 0 - 50 µM
Procedure: Real-time cell analysis (RTCA) was conducted using an Incucyte S3 live-cell analysis system (Sartorius AG, Germany). […] Following attachment overnight, the medium was replaced with fresh medium containing test compounds, with all conditions adjusted to contain 0.5% DMSO. […] Phase-contrast images (2 images per well) were automatically captured at 2-h intervals until control wells (DMSO-treated) reached full confluency. Cell growth was quantified using the instrument’s integrated Basic Analyser module by applying a confluence mask to calculate the percentage of phase area confluence. […] Dose-response curves were generated and fitted via four-parameter variable slope nonlinear regression to determine cellular IC₅₀ values.

[12] = tested on: DNA in Jurkat cells; test: Comet assay (DNA alkylation); conditions: 10 µM

Cc1ccc(-n2nc3c(=O)n(CCCCS(=O)(=O)N(CCc4cccc(CCBr)c4)CC4CCNCC4)nc(C)c3c2C)cc1 [6a]
KI ([1]; Michaelis-Menten fit of kobs): 464900 nM | covalent modification of PDEδ in different solvents ([1]; buffers of various pH, 8 h and 24 h): pH-independent | % labelling at 24 h ([1]; representative MALDI spectrum, Fig. 2c): 100% | half-life at 1 mM ([2]; HEPES buffer, pH 7.5, 37 °C, compound 1 mM, read-out: half-life t1/2 in HEPES buffer (converted)): 20 days | half-life at 1 mM ([2]; acetate buffer, pH 5.6, 37 °C, read-out: half-life t1/2 in acetate buffer (converted)): 6.04 days | ΔTm at 10 µM ([3]; 15 min at 37 °C): 11.8 ± 0.2 °C | ΔTm at 10 µM ([3]; 2 h at 37 °C): 22.1 ± 1 °C | in-cell covalent modification of PDEδ [4]: covalent binding of DeltaTag (6a) to PDEδ within 2 h | IC50 ([5]; 37 °C overnight): 6.5 ± 3.5 nM | IC50 ([5]; PDEδ 40 nM, FA probe 24 nM, room temperature overnight): 15.2 ± 8.6 nM | cellular Rheb distribution [6]: visible and sustained redistribution of Rheb to endomembranes | half-life at 1 mM [7]: 43.1 days | IC50 ([8]; 37 °C, PDEδ 40 nM, Arl2•GppNHp 40 nM, FA probe 24 nM): 10.1 ± 2.6 nM | IC50 ([8]; pre-incubated with PDEδ at 37 °C overnight before addition of Arl2•GppNHp): 4.8 ± 1.5 nM | CLhep predicted ([9]; liver microsomes, translated from intrinsic clearance, mouse, read-out: in vivo clearance (simplified well-stirred model) (converted)): ~66.7 mL/min/kg | microsomal stability in the absence of co-factor NADPH ([9]; mouse liver microsomes): metabolically stable | microsomal CLint ([9]; mouse liver microsomes 0.5 mg/ml, + NADPH, read-out: intrinsic clearance): 117 µL/min/mg | time to almost complete metabolism ([9]; mouse, liver microsomes, + NADPH): ≤ 50 min | half-life ([9]; mouse, liver microsomes, + NADPH, read-out: half-life T1/2 in mouse liver microsomes): 0.00819 days | S6P phosphorylation [10]: reduced S6P phosphorylation in a time-dependent manner | growth impairment of HAP1 PDEδ knockout cells compared to HAP1 wild type cells [11]: less pronounced | off-target effects such as DNA alkylation (Comet assay) [12]: not observed
